Patent EP1619195A2, “Compounds isolated from gamboge resin having activity in inhibiting the growth of tumor/cancer cells and pharmaceutical compositions comprising the same” (priority 2004, dated 2006)
Converted amounts (≈) assume the structure as drawn. “And” between values parts separate entries of the source, which are not always exact repeats. Identical values can stand only once. Marks after values point to notes of the source that are not given here.

Legend:
[1] = test system: HepG2 (liver cancer); assay: cells; settings: for LC50: 50% cell destroying lethal concentration
From the text: (§1) The cancer cell growth inhibition test was primarily used to detect the effect of a candidate drug on cancer cell proliferation. The working principle involved therein is the abilityof viable cells to shift alamarBlue (Biosource, USA) from its originally non-fluorescent oxidized state to a reduced form (fluorescent, red) having fluorescence via metabolic reaction. According to the fluorescent data result generated by the alamarBlue reagent thus obtained, the proliferation of the viable cells and cell activity can be quantified for detection.
(§2) In this experiment, the assay concentrations of the candidate drug were set to be 0.01, 0.1, 1, 10, and 100 µg/ml, and the following cell lines were used: 6 human cancer cells MCF-7 (breast cancer), HT-29 (colon cancer), HL-60 (leukemia), HepG2 (liver cancer), A549 (lung cancer), and U937 (lymphoma cancer), and a normal human umbilicalvenalepithelialcell (HUVEC).

[2] = test system: A549 (lung cancer); assay: cells; settings: for LC50: 50% cell destroying lethal concentration
From the text: as §1, §2

[3] = test system: HL-60 (leukemia); assay: cells; settings: for LC50: 50% cell destroying lethal concentration
From the text: as §1, §2

[4] = test system: U937 (lymphoma cancer); assay: cells; settings: for LC50: 50% cell destroying lethal concentration
From the text: as §1, §2

[5] = test system: HT-29 (colon cancer); assay: cells; settings: for LC50: 50% cell destroying lethal concentration
From the text: as §1, §2

[6] = test system: MCF-7 (breast cancer); assay: cells; settings: for LC50: 50% cell destroying lethal concentration
From the text: as §1, §2

[7] = test system: HUVEC; assay: in vitro; settings: for LC50: 50% cell destroying lethal concentration
From the text: as §1, §2

[8] = in vitro; settings: human
From the text: as §1, §2

[9] = test system: Human breast cancer cells MCF-7 (ATCC HTB-22); assay: In vivo tumor growth inhibition, MCF-7 xenograft in SCID mice; settings: 2 mg/kg x 5, intraperitoneal, 4-day interval
Experimental: Mixture formulation TSB-9 was further subjected to an animal test, in which female mice (6-8 weeks old, weighing 20-22 grams) originally from C.B-17/Icr background and having Severe Combined Immune Deficiency (SCID) were used.
Human breast cancer cells MCF-7 (ATCC HTB-22) (1x10^7 cells/0.2 ml) were implanted subcutaneously into the dorsal side of the mice, and 50 µg/mouse of estradiol benzoate (Sigma, USA) was injected subcutaneously into the mice weekly as supplement for a total of 4 weeks. When the tumor growth reached ≥5 mm in diameter (that very day was denoted as day 1), tumor-bearing […] mice were randomly divided into 4 groups (6 mice in each group).
Mixture formulation TSB-9 was dissolved in 10%DMSO, and was administered orally to the mice every day at two dosages 40 mg/kg and 80 mg/kg, respectively, for a total of 21 consecutive days. […] This treatment group served as a positive control.
Measurements were taken once every 4 days during the experiment periods, and were recorded.

[10] = HepG2, 50% cell growth inhibition concentration
[11] = Homo sapiens, A549, A549, 50% cell growth inhibition concentration
[12] = Homo sapiens, HL-60, HL-60, 50% cell growth inhibition concentration
[13] = HT-29, 50% cell growth inhibition concentration
[14] = MCF-7, 50% cell growth inhibition concentration
[15] = Homo sapiens, HUVEC, HUVEC (normal human cell), 50% cell growth inhibition concentration
[16] = Homo sapiens, HepG2, HepG2, 50% cell growth inhibition concentration
[17] = Homo sapiens, HT-29, HT-29, 50% cell growth inhibition concentration
[18] = Homo sapiens, MCF7, MCF-7, 50% cell growth inhibition concentration
[19] = Homo sapiens, U-937, U937, 50% cell growth inhibition concentration

CC(C)=CCc1c2c(c(O)c3c1OC14C(=CC5CC1C(C)(C)OC4(CC=C(C)C(=O)O)C5=O)C3=O)C=CC(C)(C)O2 (centres unmarked) [TSB-2, isomorellic acid]
LC50 ([1]; HepG2): 33 µg/mL (≈ 58.9 µM)
IC50 [1, 10]: 6.4 µg/mL
LC50 ([2]; A549): 4.6 µg/mL (≈ 8.2 µM)
IC50 [2, 11]: 1.3 µg/mL
LC50 ([3]; HL-60): 43 µg/mL (≈ 76.7 µM)
IC50 [3, 12]: 2.3 µg/mL
IC50 ([4]; Homo sapiens, U-937): 1.6 µg/mL
LC50 ([4]; U937): 6.1 µg/mL (≈ 10.9 µM)
LC50 ([5]; HT-29): 12 µg/mL (≈ 21.4 µM)
IC50 [5, 13]: 6.9 µg/mL
LC50 ([6]; MCF-7): 24 µg/mL (≈ 42.8 µM)
IC50 [6, 14]: 9.0 µg/mL
LC50 ([7]; HUVEC (normal human cell)): 22 µg/mL (≈ 39.2 µM)
IC50 [7, 15]: 1.7 µg/mL

CC(C)=CCCC1(C)C=Cc2c(O)c3c(c(CC=C(C)C)c2O1)OC12C(=CC4CC1C(C)(C)OC2(CC=C(C)C(=O)O)C4=O)C3=O (centres unmarked) [TSB-3, isogambogic acid]
LC50 ([1]; HepG2): 1.9 µg/mL (≈ 3.02 µM)
IC50 [1, 16]: 1.2 µg/mL
LC50 ([2]; A549): 4.8 µg/mL (≈ 7.63 µM)
IC50 [2, 11]: 0.88 µg/mL
LC50 ([3]; HL-60): 4.6 µg/mL (≈ 7.32 µM)
IC50 [3, 12]: 0.97 µg/mL
IC50 ([4]; Homo sapiens, U-937): 0.82 µg/mL
LC50 ([4]; U937): 3.1 µg/mL (≈ 4.93 µM)
LC50 ([5]; HT-29): 8.8 µg/mL (≈ 14 µM)
IC50 [5, 17]: 6.4 µg/mL
IC50 [6, 18]: 1.6 µg/mL
LC50 ([6]; MCF-7): 4.3 µg/mL (≈ 6.84 µM)
LC50 ([7]; HUVEC (normal human cell)): 5.2 µg/mL (≈ 8.27 µM)
IC50 [7, 15]: 1.1 µg/mL

CC(C)=CCc1c(O)cc(O)c2c(=O)c3cc4c(c(O)c3oc12)OC(C)(C)C=C4 [TSB-4, 7,9,12-trihydroxy-2,2-dimethyl-10-(3-methyl-but-2-enyl)-2H-pyrano[3,2-b]xanthen-6-one]
IC50 [1, 16]: 8.9 µg/mL
IC50 [2, 11]: 1.8 µg/mL
IC50 [3, 12]: 7.7 µg/mL
IC50 [4, 19]: 6.9 µg/mL
IC50 [5, 17]: 8.4 µg/mL
IC50 [6, 18]: 10 µg/mL
CC50 [8]: 21 µg/mL (≈ 53.2 µM)
IC50 [7, 15]: 11 µg/mL

CC(C)=CCC[C@]1(C)C=Cc2c(O)c3c(c(CC=C(C)C)c2O1)O[C@]12C(=C[C@@H]4C[C@H]1C(C)(C)O[C@@]2(C/C=C(/C)C(=O)O)C4=O)C3=O [TSB-5, gambogic acid]
IC50 [1, 16]: 0.83 µg/mL
CC50 ([1]; Homo sapiens, HepG2, read-out: LC50): 2.7 µg/mL (≈ 4.29 µM)
IC50 [2, 11]: 0.8 µg/mL
CC50 ([2]; Homo sapiens, A549, read-out: LC50): 2.9 µg/mL (≈ 4.61 µM)
IC50 [3, 12]: 0.5 µg/mL
CC50 ([3]; Homo sapiens, HL-60, read-out: LC50): 5.2 µg/mL (≈ 8.27 µM)
IC50 [4, 19]: 0.65 µg/mL
CC50 ([4]; Homo sapiens, U-937, read-out: LC50): 3.1 µg/mL (≈ 4.93 µM)
IC50 [5, 17]: 4.5 µg/mL
CC50 ([5]; Homo sapiens, HT-29, read-out: LC50): 7.1 µg/mL (≈ 11.3 µM)
IC50 [6, 18]: 0.83 µg/mL
CC50 ([6]; Homo sapiens, MCF7, read-out: LC50): 2.7 µg/mL (≈ 4.29 µM)
CC50 [8]: 3.6 µg/mL (≈ 5.73 µM)
IC50 [7, 15]: 0.87 µg/mL

CC(C)=CCc1c2c(c(O)c3c1OC14C(=CC5CC1C(C)(C)OC4(CC=C(C)CO)C5=O)C3=O)C=CC(C)(C)O2 (centres unmarked) [TSB-6, isomorellinol]
LC50 ([1]; HepG2): 3.0 µg/mL (≈ 5.49 µM)
IC50 ([1]; Homo sapiens, HepG2): 1.2 µg/mL
LC50 ([2]; A549): 9.6 µg/mL (≈ 17.6 µM)
IC50 ([2]; Homo sapiens, A549): 2 µg/mL
LC50 ([3]; HL-60): 6.2 µg/mL (≈ 11.3 µM)
IC50 ([3]; Homo sapiens, HL-60): 1.4 µg/mL
IC50 ([4]; Homo sapiens, U-937): 1.3 µg/mL
LC50 ([4]; U937): 3.8 µg/mL (≈ 6.95 µM)
LC50 ([5]; HT-29): 8.5 µg/mL (≈ 15.5 µM)
IC50 ([5]; Homo sapiens, HT-29): 5.2 µg/mL
IC50 ([6]; Homo sapiens, MCF7): 0.9 µg/mL
LC50 ([6]; MCF-7): 5.8 µg/mL (≈ 10.6 µM)
LC50 ([7]; HUVEC (normal human cell)): 9.3 µg/mL (≈ 17 µM)
IC50 ([7]; Homo sapiens, HUVEC): 1.5 µg/mL

CC(C)=CCc1c2c(c(O)c3c1OC14C(=CC5CC1C(C)(C)OC4(CC=C(C)C(=O)O)C5=O)C3=O)C=CC(C)(C)O2 (centres unmarked) [TSB-7, morellic acid]
LC50 ([1]; HepG2): 3.9 µg/mL (≈ 6.96 µM)
IC50 [1, 10]: 1.7 µg/mL
LC50 ([2]; A549): 3.4 µg/mL (≈ 6.06 µM)
IC50 ([2]; A549, 50% cell growth inhibition concentration): 0.76 µg/mL
LC50 ([3]; HL-60): 5.6 µg/mL (≈ 9.99 µM)
IC50 ([3]; HL-60, 50% cell growth inhibition concentration): 1.2 µg/mL
LC50 ([4]; U937): 4.8 µg/mL (≈ 8.56 µM)
IC50 ([4]; U937, 50% cell growth inhibition concentration): 1.6 µg/mL
LC50 ([5]; HT-29): 7.2 µg/mL (≈ 12.8 µM)
IC50 [5, 13]: 2.8 µg/mL
LC50 ([6]; MCF-7): 6.2 µg/mL (≈ 11.1 µM)
IC50 [6, 14]: 0.98 µg/mL
LC50 ([7]; HUVEC (normal human cell)): 4.8 µg/mL (≈ 8.56 µM)
IC50 ([7]; HUVEC (normal human cell), 50% cell growth inhibition concentration): 0.88 µg/mL

CC(C)=CCc1c2c(c(O)c3c1OC14C(=CC5CC1C(C)(C)OC4(CC=C(C)C)C5=O)C3=O)C=CC(C)(C)O2 (centres unmarked) [TSB-8, desoxymorellin]
LC50 ([1]; HepG2): 31 µg/mL (≈ 58.4 µM)
IC50 [1, 16]: 3.9 µg/mL
LC50 ([2]; A549): 56 µg/mL (≈ 106 µM)
IC50 [2, 11]: 4.8 µg/mL
LC50 ([3]; HL-60): > 100 µg/mL
IC50 [3, 12]: 6.5 µg/mL
IC50 ([4]; Homo sapiens, U-937): 6.2 µg/mL
LC50 ([4]; U937): > 100 µg/mL
LC50 ([5]; HT-29): 69 µg/mL (≈ 130 µM)
IC50 [5, 17]: 6.7 µg/mL
IC50 [6, 18]: 5.3 µg/mL
LC50 ([6]; MCF-7): 83 µg/mL (≈ 156 µM)
LC50 ([7]; HUVEC (normal human cell)): 40 µg/mL (≈ 75.4 µM)
IC50 [7, 15]: 2.8 µg/mL

CO[C@@]12[C@H](COC(N)=O)C3=C(C(=O)C(C)=C(N)C3=O)N1C[C@@H]1N[C@@H]12 [mitomycin, reference compound]
Tumor growth (%T/C) ([9]; Day 1): 98%
Tumor growth (%T/C) ([9]; Day 5): 31* %
Tumor growth (%T/C) ([9]; Day 9): 1* %
Tumor growth (%T/C) ([9]; Day 13): -6* %
Tumor growth (%T/C) ([9]; Day 17): -23* %
Tumor growth (%T/C) ([9]; Day 21): -36* %
Tumor growth (%T/C) ([9]; Day 25): -56* %
Tumor growth (%T/C) ([9]; Day 29): -70* %
IC50 ([1]; HepG2, positive control): 0.026 µM
IC50 ([1]; HepG2, positive control, listed as Mitomycin): 0.062 µM and 0.036 µM
IC50 ([2]; A549, positive control): 0.062 µM and 0.061 µM
IC50 ([2]; Homo sapiens, A549, A549, positive control): 0.068 µM
IC50 ([3]; HL-60, positive control): 0.047 µM and 0.027 µM
IC50 ([3]; Homo sapiens, HL-60, HL-60, positive control): 0.039 µM
IC50 ([4]; Homo sapiens, U-937, U937, positive control): 0.069 µM
IC50 ([4]; U937, positive control): 0.035 µM and 0.056 µM
IC50 ([5]; HT-29, positive control): 0.12 µM and 0.089 µM
IC50 ([5]; Homo sapiens, HT-29, HT-29, positive control): 0.09 µM
IC50 ([6]; MCF-7, positive control): 0.069 µM and 0.034 µM
IC50 ([7]; HUVEC (normal human cell), positive control): 0.24 µM
IC50 ([7]; HUVEC (normal human cell), positive control, listed as Mitomycin): 0.17 µM
